Assays:
DRO cells [1] = experiment: DRO cell proliferation (cell counts over six days); format: cell-based, human; settings: DRO cells treated every 48 hours over six days; read-out: IC50, concentration at which 50% of cell proliferation was inhibited
Method: . Cells were treated every 48 hours over six days. Cell numbers were counted and data were plotted as mean values ±S.D. The thiazolidinediones inhibited cell proliferation of DRO cells in a dose responsive fashion (FIG. 3B). […]. The EC50 concentrations were in close agreement with the IC50 concentrations for each compound (FIG. 3B).
. […] Cell numbers were counted and data were plotted as mean values ±S.D. (FIG. 9D).
DRO90-1 (DRO) and ARO81 (ARO) cells were derived from primary cultures of human anaplastic thyroid carcinoma tumors that were obtained from Dr. G. J. Juillard (University of California-Los Angeles, Los Angeles, Calif.), and KTC-2 and KTC3 cells were obtained from Dr. Junichi Kurebayashi (Podtcheko et al., J. Clin. Endocrinol. Metab., 88:1889-1896 (2003) and Pushkarev et al., Molecular mechanisms of the Effects of Low Concentrations of Taxol in Anaplastic Thyroid Cancer Cells. Endocrinology: en. 2004-0127 (2004)). Cells were cultured in RPMI 1640 medium (Cellgro, Herndon Va.) supplemented with 10% charcoal-stripped fetal bovine serum (Hyclone), non-essential amino acids, sodium pyruvate, and penicillin-streptomycin-amphotericin B at 37° C. in a humidified atmosphere with 5% CO^2. Charcoal-stripped serum was used to exclude endogenous PPAR ligands contained in serum. For proliferation studies, cells were plated in triplicate in 12-well culture plates at initial concentrations of 2×10^4 cells/well. After overnight incubation, cells were treated with 10 nM RS5444 or DMSO diluent (Sigma) for 6 days with medium, and drug changed every 48 hours. After 6 days, cells were washed with PBS (Cellgro), trypsinized, and counted by Beckman Coulter Counter (Beckman Instruments, Fullerton Calif.). […]. Cells were treated with either DMSO or 10 nM RS5444 (24 hours). After treatment, phase images were obtained on an inverted microscope. For real time PCR studies, cells were plated in 60 mm plates at 50% confluence and treated with 10 nM RS5444 for indicated incubation periods. […].
Cells were either plated in triplicate at 7.5×10^4 cells/mL in 6-well plates or 2×10^4 cells/well in 12-well plates, allowed to adhere overnight, and then transfected for 24 to 72 hours with 2 to 5 μg of either scrambled, p21^WAF1/CIP1 (1022539), RhoB (SI00058933) or PPAR-γ-specific siRNA duplexes (Qiagen Valencia, Calif.) using RNAiFect reagent (Qiagen). The DNA target sequence for PPAR-γ was 5′-[…]-3′. After transfection, cells in the 6-well plates were treated with either DMSO diluent or 10 nM RS5444 for 24 hours and then analyzed by either real time PCR or immunoblotting. Cells in the 12-well plates were exposed for 6 days with medium, and drug changed every 48 hours. After 6 days, cells were washed with PBS (Cellgro), trypsinized, and counted by Beckman Coulter Counter.

[2] = test system: ATC tumors implanted into athymic nude mice; experiment: Affymetrix Plus 2.0 array, nucleic acid expression in DRO tumors implanted into athymic nude mice; format: in vivo
Method: Affymetrix Plus 2.0 arrays were used to identify nucleic acids altered between control vehicle-treated and RS5444-treated ATC cells from cell culture and tumors implanted ectopically into athymic nude mice. Cells in culture were treated with a single dose of 10 nM RS5444 for either 2, 6, or 24 hours. Animals were treated with 0.025% RS5444 after implantation of 1×10^6 DRO cells. Animals were fed a diet including 0.025% RS5444 for 35 days, and tumor volume was measured weekly. Tumor tissues were removed, RNA was isolated, and nucleic acid expression was analyzed. Examples of some nucleic acids, the expression of which was altered in both the animal derived tumors and cells in culture, are presented in Table 1. Some of the nucleic acids regulated by PPARγ in ATC cells (e.g., BMP2, MMP14, ANGPTL4, and ITGA5) are secreted polypeptides (Table 1).

DRO cells [3] = experiment: Clonogenic growth of DRO cells in soft agar; format: cell-based, human; settings: two weeks
Method: The ability of RS5444 to inhibit clonogenic growth of DRO cells in soft agar was also examined (FIG. 3C). DRO cells were plated in triplicate on soft agar for colony formation and treated with the indicated doses of RS5444. Colonies were stained and counted after two weeks.

SMILES: Cc1cc(Oc2ccc3nc(COc4ccc(CC5SC(=O)NC5=O)cc4)n(C)c3c2)cc(C)c1N (stereo not shown) [RS5444]
- IC50 (DRO cells [1]): ~0.8 nM
- Fold change in vivo, ADRB1 ([2]; ADRB1, 0.025% in diet for 35 days): −2 fold
- Fold change in vivo, ANGPTL4 ([2]; ANGPTL4, 0.025% in diet for 35 days): 2 fold
- Fold change in vivo, BMP2 ([2]; BMP2, 0.025% in diet for 35 days): 3.8 fold
- Fold change in vivo, HR ([2]; HR, 0.025% in diet for 35 days): 1.5 fold
- Fold change in vivo, IL1B ([2]; IL1B, 0.025% in diet for 35 days): 5.6 fold
- Fold change in vivo, ITGA5 ([2]; ITGA5, 0.025% in diet for 35 days): 1.9 fold
- Fold change in vivo, LMAN1 ([2]; LMAN1, 0.025% in diet for 35 days): −4.3 fold
- Fold change in vivo, MMP14 ([2]; MMP14, 0.025% in diet for 35 days): 2.5 fold
- Fold change in vivo, RhoB ([2]; RhoB, 0.025% in diet for 35 days): 2 fold
- inhibition of colony formation in soft agar (DRO cells [3]; 1 nM): 63%
- inhibition of colony formation in soft agar (DRO cells [3]; 10 nM): 98%
- inhibition of colony formation in soft agar (DRO cells [3]; 100 nM): 99.4%

Source: US20080167532A1, “ASSESSING CANCER TREATMENT RESPONSIVENESS” (Mayo Foundation for Medical Education and Research, priority 2006, published 2008)
